BindingDB's records for patent US20260049084 (Gossamer Bio Services, 2026)

How the values were obtained:
[1] = target: T1, Ectonucleotide pyrophosphatase/phosphodiesterase family member 3 (Homo sapiens, UniProt O14638); test: ENPP3 cGAMP Biochemical Assay
T1 sequence (O14638 whole entry): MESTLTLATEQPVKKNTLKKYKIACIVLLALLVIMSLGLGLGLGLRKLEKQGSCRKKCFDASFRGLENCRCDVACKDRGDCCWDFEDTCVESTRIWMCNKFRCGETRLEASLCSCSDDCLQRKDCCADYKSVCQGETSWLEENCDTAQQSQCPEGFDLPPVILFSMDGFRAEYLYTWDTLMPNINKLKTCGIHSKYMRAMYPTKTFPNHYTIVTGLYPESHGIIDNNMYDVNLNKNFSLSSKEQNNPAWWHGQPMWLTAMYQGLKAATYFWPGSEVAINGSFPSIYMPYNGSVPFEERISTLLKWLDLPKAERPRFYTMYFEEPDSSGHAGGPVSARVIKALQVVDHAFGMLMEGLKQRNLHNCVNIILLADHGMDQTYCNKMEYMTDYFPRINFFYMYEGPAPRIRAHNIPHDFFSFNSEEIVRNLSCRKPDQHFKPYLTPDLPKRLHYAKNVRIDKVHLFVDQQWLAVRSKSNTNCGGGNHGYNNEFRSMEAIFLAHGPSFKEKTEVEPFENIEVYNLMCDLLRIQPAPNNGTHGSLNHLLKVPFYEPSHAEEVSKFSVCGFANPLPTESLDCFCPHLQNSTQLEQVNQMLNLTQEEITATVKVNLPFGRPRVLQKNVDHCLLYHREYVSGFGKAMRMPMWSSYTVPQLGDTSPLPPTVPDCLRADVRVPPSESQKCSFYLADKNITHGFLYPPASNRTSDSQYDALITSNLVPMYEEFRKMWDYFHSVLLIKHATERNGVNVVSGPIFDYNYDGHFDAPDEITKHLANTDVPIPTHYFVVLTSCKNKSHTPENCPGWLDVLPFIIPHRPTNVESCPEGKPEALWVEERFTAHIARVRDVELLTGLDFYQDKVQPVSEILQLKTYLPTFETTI
Experimental: Compounds were added to 384 well Proxiplate (PerkinElmer, Waltham MA) at 100 nl/well from DMSO stocks using Echo (Labcyte, San Jose CA). Recombinant human ENPP3 protein (Acro Biosystems, Newwark DE) was prepared in assay buffer (50 mM Tris pH7.5, 1 mM TCEP pH7.0, 2 mM MgCl2, 2 mM CaCl2), 2 mM ZnCl2 and 0.005% Tween20) and added at 2 μl/well. […] The plate was sealed and centrifuged at 1000 rpm for 1 minute again. […] The assay plate was incubated at room temperature for 120 minutes. TR-FRET signal was detected using Envision (PerkinElmer, Waltham MA).

[2] = target: T2, Ectonucleotide pyrophosphatase/phosphodiesterase family member 1 (Homo sapiens, UniProt P22413); test: ENPP1 cGAMP Biochemical Assay
T2 sequence (P22413 whole entry): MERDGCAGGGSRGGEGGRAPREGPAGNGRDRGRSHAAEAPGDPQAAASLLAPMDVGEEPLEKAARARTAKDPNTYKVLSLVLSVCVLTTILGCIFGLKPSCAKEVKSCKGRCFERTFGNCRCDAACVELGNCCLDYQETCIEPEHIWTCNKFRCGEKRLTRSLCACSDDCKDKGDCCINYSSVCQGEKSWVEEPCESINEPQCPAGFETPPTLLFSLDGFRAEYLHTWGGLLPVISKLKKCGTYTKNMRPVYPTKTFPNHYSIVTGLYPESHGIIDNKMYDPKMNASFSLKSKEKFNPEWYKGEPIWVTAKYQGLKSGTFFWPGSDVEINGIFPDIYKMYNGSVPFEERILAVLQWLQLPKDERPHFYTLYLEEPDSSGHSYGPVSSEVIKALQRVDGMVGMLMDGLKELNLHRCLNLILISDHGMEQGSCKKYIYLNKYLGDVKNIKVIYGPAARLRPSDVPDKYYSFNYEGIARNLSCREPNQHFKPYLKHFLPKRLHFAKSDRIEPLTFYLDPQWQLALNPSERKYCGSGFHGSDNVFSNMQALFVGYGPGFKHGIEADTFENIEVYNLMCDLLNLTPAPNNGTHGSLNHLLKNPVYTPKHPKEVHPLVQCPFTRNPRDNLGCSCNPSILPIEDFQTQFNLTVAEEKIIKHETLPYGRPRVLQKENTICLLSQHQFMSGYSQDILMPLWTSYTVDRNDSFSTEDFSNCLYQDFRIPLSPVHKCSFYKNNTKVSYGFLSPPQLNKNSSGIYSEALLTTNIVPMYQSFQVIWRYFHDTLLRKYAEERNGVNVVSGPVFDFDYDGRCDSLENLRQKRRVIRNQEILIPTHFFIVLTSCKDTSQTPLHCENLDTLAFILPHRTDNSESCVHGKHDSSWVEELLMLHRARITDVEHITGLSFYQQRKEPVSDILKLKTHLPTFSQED
Experimental: Compounds were added to 384 well Proxiplate (PerkinElmer, Waltham MA) at 100 nl/well from DMSO stocks using Echo (Labcyte, San Jose CA). Recombinant human ENPP1 protein (R&D Systems, Minneapolis MN) was prepared in assay buffer (50 mM Tris pH7.5, 1 mM TCEP pH7.0, 2 mM MgCl2 and 0.005% Tween20) and added at 10 μl/well. The plate was sealed, centrifuged at 1000 rpm for 1 minute and incubated at room temperature for 30 minutes before 5 μl substrate 2′3′-cGAMP (R&D Systems, Minneapolis MN) in assay buffer was added to each well to a final concentration of 0.5 nM ENPP1 and 1000 nM 2′3′-cGAMP. The plate was sealed and centrifuged at 1000 rpm for 1 minute again. After incubation at 25° C. for 60 minutes, Terbium labelled AMP/GMP antibody and AMP/GMP HiLyte647 Tracer (BellBrook Labs, Fitchburg WI) in detection buffer (50 mM Tris pH7.5, 20 mM EDTA and 0.1% Prionex) were added to the reaction mixture to a final concentration of 2 nM (5 μl/well). The assay plate was incubated at room temperature for 120 minutes. TR-FRET signal was detected using Envision (PerkinElmer, Waltham MA).

[3] = target: Carbonic anhydrase 2 (Homo sapiens, UniProt P00918); test: Carbonic Anhydrase 2 Enzymatic Assay
Experimental: (§1) Test compound and/or vehicle was preincubated with carbonic anhydrase II enzyme (15 μg/ml) isolated from human erythrocyte in reaction buffer (50 mM MOPS solution pH 7.5) for 15 minutes at 25° C. The reaction was initiated by addition of 500 μM 4-nitrophenyl acetate and incubated for 30 minutes. The plate was read on a spectrophotometer (Absorbance: 400 nm).

[4] = target: Carbonic anhydrase 1 (Homo sapiens, UniProt P00915); test: Carbonic Anhydrase 1 Enzymatic Assay
Chain of Carbonic anhydrase 1 (P00915 whole entry): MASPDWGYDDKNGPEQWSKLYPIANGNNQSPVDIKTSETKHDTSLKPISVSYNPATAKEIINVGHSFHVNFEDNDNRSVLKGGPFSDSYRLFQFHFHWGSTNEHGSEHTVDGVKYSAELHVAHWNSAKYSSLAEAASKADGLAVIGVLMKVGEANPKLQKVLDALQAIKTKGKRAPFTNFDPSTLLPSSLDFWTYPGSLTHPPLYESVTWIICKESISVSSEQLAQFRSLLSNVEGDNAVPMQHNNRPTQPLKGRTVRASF
Experimental: as §1, with “I” for “II”, “nm)” for “nm).”

SMILES	IC50 [1] [nM]	IC50 [2] [nM]	IC50 [3] [nM]	IC50 [4] [nM]
CCn1nc(Cl)c2c(NCC3CCN(S(=N)(=O)CCNC(C)=O)CC3)ccnc21 (centres undefined) [US20260049084, Compound 14K]	> 1000	< 10	–	–
CN=[S@](N)(=O)N1CCC(CNc2ccnc3c2c(Cl)nn3CC#N)CC1 [US20260049084, Compound 15G]	–	–	> 1000	> 1000
